Test results taken from patent US20040057955A1, “Methods of inhibition of stenosis and/or sclerosis of the aortic valve” (priority 2003, published 2004).

What was measured:
Type in all cases: in vivo, human
[1] = tested on: patients with mild to moderate aortic stenosis; test: Clinical follow up (vital signs, symptoms) in ramipril pilot study; details: for HR sitting / HR supine: in bpm (unit assumed); for DBP supine / SBP supine: in mmHg
Experimental: (§1) Clinical Protocol: This pilot study enrolled 8 patients with mild to moderate aortic stenosis, normal left ventricular (LV) function and no history of coronary artery disease. […] Patients then were placed on the ACE inhibitor ramipril, 2.5 mg qd for 2 weeks followed by up-titration at 2 week intervals to 2.5 mg bid, 5 mg bid and 7.5 mg bid. The study lasted 8 weeks. Vital signs were repeated weekly, chemistry panels every 2 weeks and echocardiograms every 4 weeks.

[2] = tested on: patients with mild to moderate aortic stenosis; test: Lab measures (chemistry panel) in ramipril pilot study
Experimental: as §1

[3] = tested on: patients with mild to moderate aortic stenosis; test: Echo measures (echocardiogram) in ramipril pilot study
Experimental: as §1

[4] = Week 1, ramipril dose 2.5 × 1, n = 8, mean±SD
[5] = Week 1, ramipril dose 2.5 × 1, n = 8
[6] = Week 2, ramipril dose 2.5 × 1, n = 8, mean±SD
[7] = Week 2, ramipril dose 2.5 × 1, n = 8
[8] = Week 3, ramipril dose 2.5 × 2, n = 8, mean±SD
[9] = Week 3, ramipril dose 2.5 × 2, n = 8
[10] = Week 4, ramipril dose 2.5 × 2, n = 8, mean±SD
[11] = Week 4, ramipril dose 2.5 × 2, n = 8
[12] = Week 5, ramipril dose 5 × 2, n = 8, mean±SD
[13] = Week 5, ramipril dose 5 × 2, n = 8
[14] = Week 6, ramipril dose 5 × 2, n = 8, mean±SD
[15] = Week 6, ramipril dose 5 × 2, n = 8
[16] = Week 7, ramipril dose 7.5 × 2, n = 8, mean±SD
[17] = Week 7, ramipril dose 7.5 × 2, n = 8
[18] = Week 8 (final), ramipril dose 7.5 × 2, n = 8, mean±SD
[19] = Week 8 (final), ramipril dose 7.5 × 2, n = 8, mean±SD, listed as Ramipril
[20] = Week 8, ramipril dose 7.5 × 2, n = 8
[21] = count among n = 8, Week 1, ramipril dose 2.5 × 1
[22] = count among n = 8, Week 2, ramipril dose 2.5 × 1
[23] = count among n = 8, Week 3, ramipril dose 2.5 × 2
[24] = count among n = 8, Week 4, ramipril dose 2.5 × 2
[25] = count among n = 8, Week 5, ramipril dose 5 × 2
[26] = count among n = 8, Week 6, ramipril dose 5 × 2
[27] = count among n = 8, Week 7, ramipril dose 7.5 × 2
[28] = count among n = 8, Week 8, ramipril dose 7.5 × 2

SMILES: CCOC(=O)[C@H](CCc1ccccc1)N[C@@H](C)C(=O)N1[C@H](C(=O)O)C[C@@H]2CCC[C@@H]21 [ramipril]
- DBP sitting [1, 4]: 67 ± 9 mmHg
- SBP sitting [1, 4]: 109 ± 17 mmHg
- HR sitting [1, 5]: 60 ± 9
- HR supine [1, 5]: 58 ± 5
- DBP supine [1, 5]: 62 ± 5
- SBP supine [1, 5]: 106 ± 15
- DBP sitting [1, 6]: 65 ± 8 mmHg
- SBP sitting [1, 6]: 113 ± 16 mmHg
- HR sitting [1, 7]: 61 ± 8
- HR supine [1, 7]: 63 ± 6
- DBP supine [1, 7]: 60 ± 9
- SBP supine [1, 7]: 110 ± 12
- DBP sitting [1, 8]: 65 ± 8 mmHg
- SBP sitting [1, 8]: 111 ± 15 mmHg
- HR sitting [1, 9]: 62 ± 8
- HR supine [1, 9]: 62 ± 11
- DBP supine [1, 9]: 60 ± 7
- SBP supine [1, 9]: 107 ± 14
- DBP sitting [1, 10]: 64 ± 5 mmHg
- SBP sitting [1, 10]: 112 ± 16 mmHg
- HR sitting [1, 11]: 65 ± 7
- HR supine [1, 11]: 64 ± 7
- DBP supine [1, 11]: 64 ± 8
- SBP supine [1, 11]: 111 ± 14
- DBP sitting [1, 12]: 67 ± 9 mmHg
- SBP sitting [1, 12]: 116 ± 17 mmHg
- HR sitting [1, 13]: 62 ± 6
- HR supine [1, 13]: 61 ± 7
- DBP supine [1, 13]: 69 ± 10
- SBP supine [1, 13]: 116 ± 17
- DBP sitting [1, 14]: 65 ± 4 mmHg
- SBP sitting [1, 14]: 118 ± 20 mmHg
- HR sitting [1, 15]: 61 ± 8
- HR supine [1, 15]: 61 ± 5
- DBP supine [1, 15]: 65 ± 6
- SBP supine [1, 15]: 114 ± 20
- DBP sitting [1, 16]: 70 ± 10 mmHg
- SBP sitting [1, 16]: 121 ± 13 mmHg
- HR sitting [1, 17]: 61 ± 4
- HR supine [1, 17]: 61 ± 6
- DBP supine [1, 17]: 72 ± 6
- SBP supine [1, 17]: 121 ± 13
- DBP sitting [1, 18]: 65±10 mmHg
- SBP sitting [1, 18]: 114±14 mmHg
- DBP sitting [1, 19]: 65 ± 10 mmHg
- SBP sitting [1, 19]: 114 ± 14 mmHg
- HR sitting ([1]; Week 8 (final), ramipril dose 7.5 × 2, n = 8): 62±3
- HR sitting ([1]; Week 8 (final), ramipril dose 7.5 × 2, n = 8, listed as Ramipril): 62 ± 3
- HR supine [1, 20]: 62 ± 3
- DBP supine [1, 20]: 63 ± 6
- SBP supine [1, 20]: 120 ± 15
- Cough [1, 21]: 0
- Ghest pain [1, 21]: 0
- Hyper-sensitivity [1, 21]: 0
- Light-headedness [1, 21]: 0
- Cough [1, 22]: 0
- Ghest pain [1, 22]: 0
- Hyper-sensitivity [1, 22]: 0
- Light-headedness [1, 22]: 0
- Cough [1, 23]: 0
- Ghest pain [1, 23]: 0
- Hyper-sensitivity [1, 23]: 0
- Light-headedness [1, 23]: 0
- Cough [1, 24]: 0
- Ghest pain [1, 24]: 0
- Hyper-sensitivity [1, 24]: 0
- Light-headedness [1, 24]: 0
- Cough [1, 25]: 0
- Ghest pain [1, 25]: 0
- Hyper-sensitivity [1, 25]: 0
- Light-headedness [1, 25]: 0
- Cough [1, 26]: 2
- Ghest pain [1, 26]: 1
- Hyper-sensitivity [1, 26]: 0
- Light-headedness [1, 26]: 0
- Cough [1, 27]: 0
- Ghest pain [1, 27]: 0
- Hyper-sensitivity [1, 27]: 0
- Light-headedness [1, 27]: 0
- Cough [1, 28]: 1
- Ghest pain [1, 28]: 1
- Hyper-sensitivity [1, 28]: 0
- Light-headedness [1, 28]: 1
- Creatinine ([2]; Week 1, n = 8, mean±SD): 1.1 ± 0.3 mg/dL
- Glucose ([2]; Week 1, n = 8, mean±SD): 97 ± 29 mg/dL
- Potassium ([2]; Week 1, n = 8, mean±SD): 4.3 ± 0.3 mEq/L
- Creatinine ([2]; Week 3, n = 8, mean±SD): 1.2 ± 0.4 mg/dL
- Glucose ([2]; Week 3, n = 8, mean±SD): 96 ± 15 mg/dL
- Potassium ([2]; Week 3, n = 8, mean±SD): 4.4 ± 0.4 mEq/L
- Creatinine ([2]; Week 5, n = 8, mean±SD): 1.1 ± 0.3 mg/dL
- Glucose ([2]; Week 5, n = 8, mean±SD): 91 ± 18 mg/dL
- Potassium ([2]; Week 5, n = 8, mean±SD): 4.3 ± 0.5 mEq/L
- Creatinine ([2]; Week 7, n = 8, mean±SD): 1.1 ± 0.3 mg/dL
- Glucose ([2]; Week 7, n = 8, mean±SD): 91 ± 19 mg/dL
- Potassium ([2]; Week 7, n = 8, mean±SD): 4.4 ± 0.5 mEq/L
- Creatinine ([2]; final measurement, mean±SD): 1.1 ± 0.3 mg/dL
- Glucose ([2]; final measurement, mean±SD): 91 ± 18 mg/dL
- Potassium ([2]; final measurement, mean±SD): 4.3 ± 0.5 mEq/L
- AS-Jet (aortic stenosis jet velocity) ([3]; Week4, n = 8, mean±SD): 2.8 ± 0.2 m/sec
- Cardiac output ([3]; Week4, n = 8, mean±SD): 5.9 ± 1.5 L/min
- LVEF ([3]; Week4, n = 8, mean±SD): 73 ± 4%
- LVOT-velocity (left ventricular outflow tract velocity) ([3]; Week4, n = 8, mean±SD): 1.1 ± 0.1 m/sec
- AS-Jet (aortic stenosis jet velocity) ([3]; Week8 (final), n = 8, mean±SD): 2.8±0.3 m/sec
- Cardiac output ([3]; Week8 (final), n = 8, mean±SD): 5.7 ± 1.4 L/min
- LVEF ([3]; Week8 (final), n = 8, mean±SD): 71±7%
- LVOT-velocity (left ventricular outflow tract velocity) ([3]; Week8 (final), n = 8, mean±SD): 1.0±0.2 m/sec
